Source: US20260262643A1, “HERBICIDAL BENZOXAZINES” (FMC CORPORATION, priority 2022, published 2026)

What was measured:
[1] = system: kochia; assay: Test A postemergence; assay type: in vivo, Bassia scoparia
Procedure, shortened: (§1)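 Plants were grown in loam and sand and treated preemergence or postemergence (one- to two-leaf stage, 2–10 cm) with compound in solvent plus surfactant. Response was scored against untreated controls after 10 greenhouse days, where 0 means no effect and 100 complete control.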

[2] = system: goosegrass; assay: Test A postemergence; assay type: in vivo, Eleusine indica
Procedure, shortened: as §1

[3] = system: wheat; assay: Test A postemergence; assay type: in vivo, Triticum aestivum
Text: (§2) Seeds of plant species selected from barnyardgrass (Echinochloa crusgalli), blackgrass (Alopecurus myosuroides), corn (Zea mays), foxtail, giant (giant foxtail, Setaria faberi), goosegrass (Eleusine indica), kochia (Bassia scoparia), oat, wild (wild oat, Avena fatua), pigweed, palmer (palmer amaranth, palmer pigweed, Amaranthus palmeri), Pigweed, Redroot (redroot pigweed, Amaranthus retroflexus), ragweed (common ragweed, Ambrosia artemisiifolia), ryegrass, Italian (italian ryegrass, Lolium multiflorum), soybean (Glycine max), and wheat (Triticum aestivum) were planted into a blend of loam soil and sand and treated preemergence with a directed soil spray using test chemicals formulated in a non-phytotoxic solvent mixture which included a surfactant. At the same time, plants selected from these crops and weed species and also galium (catchweed bedstraw, Galium aparine) and horseweed (Erigeron canadensis) were planted in pots containing the same blend of loam soil and sand and treated with postemergence applications of test chemicals formulated in the same manner. Plants ranged in height from 2 to 10 cm and were in the one- to two-leaf stage for the postemergence treatment. Treated plants and untreated controls were maintained in a greenhouse for 10 days, after which time all treated plants were compared to untreated controls and visually evaluated for injury. Plant response ratings, summarized in Table A, are based on a 0 to 100 scale where 0 is no effect and 100 is complete control. A dash (-) response means no test result.

[4] = system: goosegrass; assay: Test A preemergence; assay type: in vivo, Eleusine indica
Procedure, shortened: as §1

[5] = system: blackgrass; assay: Test A postemergence; assay type: in vivo, Alopecurus myosuroides
Procedure, shortened: as §1

[6] = system: ducksalad; assay: Test B flooded paddy test; assay type: in vivo, Heteranthera limosa; details: 250 g ai/ha, Flood, 13 days, 0 to 100 scale (0 no effect, 100 complete control)
Procedure, shortened: (§3)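 2-leaf stage; pots flooded 3 cm over soil; compound dosed into paddy water; depth kept constant. Greenhouse, 13 d. Visual rating vs controls, 0 (no effect)–100 (complete control). Dash = no result.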

[7] = system: barnyardgrass; assay: Test B flooded paddy test; assay type: in vivo, Echinochloa crus-galli; details: 250 g ai/ha, Flood, 13 days, 0 to 100 scale (0 no effect, 100 complete control)
Procedure, shortened: as §3

[8] = system: foxtail, giant; assay: Test A preemergence; assay type: in vivo, Setaria faberi
Procedure, shortened: as §1

[9] = system: oat, wild; assay: Test A postemergence; assay type: in vivo, Avena fatua
Text: as §2

[10] = system: sedge, umbrella; assay: Test B flooded paddy test; assay type: in vivo, Cyperus difformis; details: 250 g ai/ha, Flood, 13 days, 0 to 100 scale (0 no effect, 100 complete control)
Procedure, shortened: as §3

[11] = system: kochia; assay: Test A preemergence; assay type: in vivo, Bassia scoparia
Procedure, shortened: as §1

[12] = system: foxtail, giant; assay: Test A postemergence; assay type: in vivo, Setaria faberi
Procedure, shortened: as §1

[13] = system: wheat; assay: Test A preemergence; assay type: in vivo, Triticum aestivum
Text: as §2

[14] = system: pigweed, palmer; assay: Test A postemergence; assay type: in vivo, Amaranthus palmeri
Procedure, shortened: as §1

[15] = system: galium; assay: Test A postemergence; assay type: in vivo, Galium aparine
Procedure, shortened: as §1

[16] = system: corn; assay: Test A postemergence; assay type: in vivo, Zea mays
Text: as §2

[17] = system: blackgrass; assay: Test A preemergence; assay type: in vivo, Alopecurus myosuroides
Procedure, shortened: as §1

[18] = system: pigweed, palmer; assay: Test A preemergence; assay type: in vivo, Amaranthus palmeri
Procedure, shortened: as §1

[19] = system: corn; assay: Test A preemergence; assay type: in vivo, Zea mays
Text: as §2

[20] = system: ryegrass, Italian; assay: Test A preemergence; assay type: in vivo, Lolium multiflorum
Procedure, shortened: as §1

[21] = system: ragweed; assay: Test A postemergence; assay type: in vivo, Ambrosia artemisiifolia
Procedure, shortened: as §1

[22] = system: ryegrass, Italian; assay: Test A postemergence; assay type: in vivo, Lolium multiflorum
Procedure, shortened: as §1

[23] = system: soybean; assay: Test A preemergence; assay type: in vivo, Glycine max
Text: as §2

[24] = system: ragweed; assay: Test A preemergence; assay type: in vivo, Ambrosia artemisiifolia
Procedure, shortened: as §1

[25] = system: rice; assay: Test B flooded paddy test; assay type: in vivo, Oryza sativa; details: 250 g ai/ha, Flood, 13 days, 0 to 100 scale (0 no effect, 100 complete control)
Procedure, shortened: as §3

[26] = system: oat, wild; assay: Test A preemergence; assay type: in vivo, Avena fatua
Text: as §2

[27] = system: soybean; assay: Test A postemergence; assay type: in vivo, Glycine max
Text: as §2

[28] = system: horseweed; assay: Test A postemergence; assay type: in vivo, Erigeron canadensis; details: postemergence, 10 days, visual injury, 0 to 100 scale (0 no effect, 100 complete control)
Procedure, shortened: as §1

[29] = 125 g ai/ha, postemergence, 10 days, visual injury, 0 to 100 scale (0 no effect, 100 complete control)
[30] = 500 g ai/ha, Postemergence, 0 to 100 scale
[31] = 125 g ai/ha, visual injury after 10 days, 0 to 100 scale, 0 is no effect, 100 is complete control
[32] = 500 g ai/ha, 0 to 100 scale (0 no effect, 100 complete control), 10 days
[33] = 500 g ai/ha, postemergence, 10 days, visual injury, 0 to 100 scale (0 no effect, 100 complete control)

CCc1cccc2c1OC(C)CN2C(=O)c1cccc(-n2cncn2)c1 (stereo not drawn) [Compound 43]
80: Plant response rating, Pigweed, Palmer [18, 32] | Plant response rating, Soybean [27, 29]
0: Plant response rating, Goosegrass [2, 29] | Plant response rating, Blackgrass [5, 29] | Plant response rating, Blackgrass [5, 30] | Plant response rating, Ducksalad [6] | Plant response rating, Barnyardgrass [7] | Plant response rating, Oat, Wild [9, 29] | Plant response rating, Sedge, Umbrella [10] | Plant response rating, Kochia [11, 31] | Plant response rating, Kochia [11, 32] | Plant response rating, Wheat [13, 31] | Plant response rating, Pigweed, Palmer [18, 31] | Plant response rating, Ragweed [21, 29] | Plant response rating, Ragweed [21, 30] | Plant response rating, Ragweed [24, 31] | Plant response rating, Rice [25]
20: Plant response rating, Oat, Wild [9, 30] | Plant response rating, Pigweed, Palmer [14, 30] | Plant response rating, Corn [19, 32] | Plant response rating, Ragweed [24, 32] | Plant response rating, Oat, Wild [26, 31]
40: Plant response rating, Goosegrass [2, 30] | Plant response rating, Blackgrass [17, 32] | Plant response rating, Soybean [23, 32]
100: Plant response rating, Soybean [27, 30]
60: Plant response rating, Goosegrass [4, 31] | Plant response rating, Foxtail, Giant [8, 31] | Plant response rating, Galium [15, 30] | Plant response rating, Ryegrass, Italian [20, 31] | Plant response rating, Ryegrass, Italian [22, 30]
90: Plant response rating, Goosegrass [4, 32] | Plant response rating, Foxtail, Giant [8, 32] | Plant response rating, Ryegrass, Italian [20, 32] | Plant response rating, Oat, Wild [26, 32]
10: Plant response rating, Kochia [1, 29] | Plant response rating, Wheat [3, 29] | Plant response rating, Foxtail, Giant [12, 29] | Plant response rating, Wheat [13, 32] | Plant response rating, Corn [16, 29] | Plant response rating, Blackgrass [17, 31] | Plant response rating, Corn [19, 31]
30: Plant response rating, Kochia [1, 30] | Plant response rating, Wheat [3, 30] | Plant response rating, Galium [15, 29] | Plant response rating, Corn [16, 30] | Plant response rating, Ryegrass, Italian [22, 29]
50: Plant response rating, Pigweed, Palmer [14, 29]
70: Plant response rating, Foxtail, Giant [12, 30]

CC1CN(C(=O)c2cc(F)cc(-n3cncn3)c2)c2cccc(Cl)c2O1 (stereo not drawn) [Compound 37]
20: Plant response rating, Kochia [11, 32] | Plant response rating, Wheat [13, 32] | Plant response rating, Corn [19, 32]
60: Plant response rating, Pigweed, Palmer [14, 30] | Plant response rating, Blackgrass [17, 31] | Plant response rating, Oat, Wild [26, 32]
80: Plant response rating, Wheat [3, 30] | Plant response rating, Blackgrass [5, 30] | Plant response rating, Corn [16, 30] | Plant response rating, Blackgrass [17, 32] | Plant response rating, Ryegrass, Italian [20, 31]
40: Plant response rating, Goosegrass [2, 29] | Plant response rating, Wheat [3, 29] | Plant response rating, Galium [15, 29]
0: Plant response rating, Ducksalad [6] | Plant response rating, Barnyardgrass [7] | Plant response rating, Oat, Wild [9, 29] | Plant response rating, Sedge, Umbrella [10] | Plant response rating, Kochia [11, 31] | Plant response rating, Wheat [13, 31] | Plant response rating, Corn [19, 31] | Plant response rating, Ragweed [21, 29] | Plant response rating, Ragweed [21, 30] | Plant response rating, Soybean [23, 31] | Plant response rating, Ragweed [24, 31] | Plant response rating, Ragweed [24, 32] | Plant response rating, Rice [25] | Plant response rating, Oat, Wild [26, 31]
90: Plant response rating, Kochia [1, 30] | Plant response rating, Goosegrass [2, 30] | Plant response rating, Goosegrass [4, 31] | Plant response rating, Foxtail, Giant [8, 31] | Plant response rating, Foxtail, Giant [12, 30] | Plant response rating, Pigweed, Palmer [18, 32] | Plant response rating, Ryegrass, Italian [20, 32] | Plant response rating, Ryegrass, Italian [22, 30]
10: Plant response rating, Corn [16, 29]
50: Plant response rating, Kochia [1, 29] | Plant response rating, Foxtail, Giant [12, 29] | Plant response rating, Pigweed, Palmer [18, 31]
70: Plant response rating, Soybean [23, 32]
30: Plant response rating, Blackgrass [5, 29] | Plant response rating, Oat, Wild [9, 30] | Plant response rating, Pigweed, Palmer [14, 29] | Plant response rating, Ryegrass, Italian [22, 29]
100: Plant response rating, Goosegrass [4, 32] | Plant response rating, Foxtail, Giant [8, 32] | Plant response rating, Galium [15, 30] | Plant response rating, Soybean [27, 29] | Plant response rating, Soybean [27, 30]

Cc1cccc2c1O[C@@H](C)CN2C(=O)c1cccc(-n2cnc(C3CCC3)n2)c1 [Compound 77]
30: Plant response rating, Wheat [3, 33] | Plant response rating, Corn [19, 32]
80: Plant response rating, Corn [16, 33] | Plant response rating, Ryegrass, Italian [20, 31]
50: Plant response rating, Blackgrass [5, 29] | Plant response rating, Wheat [13, 32] | Plant response rating, Horseweed ([28]; 125 g ai/ha) | Plant response rating, Horseweed ([28]; 500 g ai/ha) | Plant response rating, Soybean [23, 32]
70: Plant response rating, Blackgrass [5, 30] | Plant response rating, Foxtail, Giant [12, 29] | Plant response rating, Pigweed, Palmer [14, 33]
85: Plant response rating, Sedge, Umbrella [10]
100: Plant response rating, Goosegrass [4, 31] | Plant response rating, Goosegrass [4, 32] | Plant response rating, Foxtail, Giant [8, 32] | Plant response rating, Galium [15, 29] | Plant response rating, Galium [15, 33] | Plant response rating, Pigweed, Palmer [18, 32] | Plant response rating, Ryegrass, Italian [20, 32] | Plant response rating, Soybean [27, 33]
40: Plant response rating, Corn [16, 29]
10: Plant response rating, Oat, Wild [9, 33]
90: Plant response rating, Kochia [1, 29] | Plant response rating, Kochia [1, 33] | Plant response rating, Foxtail, Giant [8, 31] | Plant response rating, Kochia [11, 31] | Plant response rating, Kochia [11, 32] | Plant response rating, Foxtail, Giant [12, 33] | Plant response rating, Pigweed, Palmer [18, 31]
20: Plant response rating, Goosegrass [2, 29] | Plant response rating, Ducksalad [6] | Plant response rating, Wheat [13, 31]
0: Plant response rating, Barnyardgrass [7] | Plant response rating, Corn [19, 31] | Plant response rating, Ragweed [21, 33] | Plant response rating, Soybean [23, 31] | Plant response rating, Ragweed [24, 31] | Plant response rating, Ragweed [24, 32] | Plant response rating, Rice [25]
60: Plant response rating, Goosegrass [2, 33] | Plant response rating, Ryegrass, Italian [22, 33]
